What was measured:
[1] = test system: primary adherent fibroblast cell line derived from an Methylmalonic Acidemia (MMA) patient (GM01673, Coriell Institute for Medical Research); experiment: Mitochondrial respiration (Seahorse XFe96, OCR), Spare Capacity AUC; format: cell-based, human; details: 10 μM compound, 1 μM FCCP for 20 cycles, relative to vehicle
Method: The effect of the compounds of the present disclosure on mitochondrial respiration was measured with a XFe96 Extracellular Flux Analyzer (Seahorse Bioscience, Agilent Technologies) and Oxygen consumption Rate (OCR) and Extracellular acidification rate (ECAR) determined.
Cell culture and treatments. Primary adherent fibroblasts were cultured in minimum essential medium (MEM) (Gibco, 25030081) supplemented with 2 mM L-Glutamine (Gibco, 25030081), 15% fetal bovine serum (FBS) (Gibco, 26400044) and 1% penicillin/streptomycin (Gibco, 5140122) at 37° C. and 5% CO2. Cells were collected for either passaging or experiment at ˜70-80% confluence. Cells were obtained by trypsinization and seeded at 10,000 cells/well in cell culture microplates (Seahorse Bioscience, 101085-004) and allowed to adhere for 48 hours in culture media. […]
Determining the optimized cell density and concentrations for stress test, such as FCCP, were achieved through methods well known to those of skill in the art. After baseline measurements of OCR, cells were challenged with compounds of the present disclosure at different concentrations (10 to 50 μM) or vehicle (DMSO, 0.1%) and a post-compound baseline was recorded. OCR was measured after sequentially adding to each well 1.5 μg/ml oligomycin (inhibitor of ATP synthase Sigma-Aldrich, 753531), then maximal OCR was determined with carbonyl cyanide 4-(trifluoromethoxy) phenylhydrazone (FCCP, Sigma-Aldrich, C2920), (uncoupler of oxidative phosphorylation) and 1.0 μM of rotenone (Sigma-Aldrich, R8875) plus antimycin A (Sigma-Aldrich, A8674) (inhibitors of mitochondrial complex I and III) for determination of rotenone-antimycin insensitive respiration together with Hoechst for nuclear staining in situ when normalized to cell counts. After the analysis and nuclear staining, the XFp microplate was transferred to the Cytation 5, and the nuclear images were captured, the individual nuclei were identified and counted by BioTek Gen5 software. […]

[2] = test system: Methylmalonic Acidemia (MMA) Primary fibroblasts (Tsi 5224 Trans-Hit Bio, 21498 Telethon Network of Genetic Biobanks); experiment: Measurement of ATP (ATPlite assay); format: cell-based, human; details: 10 μM compound for 2 hours
Method: Primary adherent fibroblasts were cultured in minimum essential medium (MEM) (Gibco, 25030081) supplemented with 2 mM L-Glutamine (Gibco, 25030081), 15% fetal bovine serum (FBS) (Gibco, 26400044) and 1% penicillin/streptomycin (Gibco, 5140122) at 37° C. and 5% CO2. Cells were collected for either passaging or experiment at ˜70-80% confluence. Cells were obtained by trypsinization and seeded in cell culture microplates either white plate (Thermo Fisher Scientific, 152028) for luminescent measurement or black plate (Thermo Fisher Scientific, 165305) for fluorescent based read out for different assays listed below. Cells were obtained by trypsinization and […] were seeded and allowed to adhere for 16-18 hours to have confluency around 70-80% in the cell well with culture media. After 24 hours prior to measurements (37° C., 5% CO2) media was changed to Dulbecco's Modified Eagle Medium (DMEM, Agilent Seahorse cat #103575-100) with the appropriate supplements (1 mM glucose, 2 mM L-glutamine, 1 mM pyruvate, 10% FBS).
Assay was performed according to manufacturer instructions (ATPlite Assay Perkin Elmer, 6016941). 50 μl of cell lysis buffer was added to each well with cells in 100 μl of media and incubated for 5 mins at RT in an orbital shaker at 700 rpm to lyse the cells and stabilize the ATP. […]

With CC1(C)COC(=O)CCC(=O)SCCNC(=O)CCNC(=O)[C@@H]1O [Compound 206, (R)-15-hydroxy-16,16-dimethyl-1-oxa-6-thia-9,13-diazacycloheptadecane-2,5,10,14-tetraone] the “increase of Spare Capacity AUC” value ([1]; medium with 1 mM glucose) was “at least 50%”, the “increase of Spare Capacity AUC” value ([1]; medium with 10 mM glucose, 2 mM glutamine, 1 mM pyruvate) was greater than 10% and the “increase of ATP levels” value [2] was “at least 5%”.

— US20230348506A1, “MACROCYCLIC PANTETHEINE DERIVATIVES AND USES THEREOF” (VectivBio Comet AG, priority 2019, published 2023)
